Assay results as given in article PMC4133811 (BMB Reports, 2012).

What was measured:
Assay in all cases: NADH oxidation at […] nm, reductive amination of 2-oxoglutarate
Type in all cases: biochemical
[1] = target: hGDH2 (human glutamate dehydrogenase isozyme 2) (Homo sapiens, UniProt P49448, C146A)
[2] = target: hGDH2 (human glutamate dehydrogenase isozyme 2) (Homo sapiens, UniProt P49448, C254A)
[3] = target: hGDH2 (human glutamate dehydrogenase isozyme 2) (Homo sapiens, UniProt P49448, C172A)
Chain of hGDH2 (human glutamate dehydrogenase isozyme 2) (Homo sapiens, UniProt P49448, C172A) (P49448 54-558 C172A): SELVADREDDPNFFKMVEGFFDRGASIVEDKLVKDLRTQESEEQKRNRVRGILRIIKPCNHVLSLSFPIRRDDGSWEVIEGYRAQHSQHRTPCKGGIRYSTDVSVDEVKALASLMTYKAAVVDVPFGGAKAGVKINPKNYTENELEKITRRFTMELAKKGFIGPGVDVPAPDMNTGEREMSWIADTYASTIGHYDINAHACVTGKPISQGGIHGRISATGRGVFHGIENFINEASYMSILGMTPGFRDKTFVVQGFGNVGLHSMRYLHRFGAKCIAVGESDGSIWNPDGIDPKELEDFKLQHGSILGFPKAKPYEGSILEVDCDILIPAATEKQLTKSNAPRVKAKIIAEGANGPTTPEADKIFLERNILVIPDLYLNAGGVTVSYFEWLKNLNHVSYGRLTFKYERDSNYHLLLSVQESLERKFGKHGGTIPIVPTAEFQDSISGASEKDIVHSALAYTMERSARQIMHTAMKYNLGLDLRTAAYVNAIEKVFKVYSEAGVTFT

[4] = target: hGDH2 (human glutamate dehydrogenase isozyme 2) (Homo sapiens, UniProt P49448)
Chain of hGDH2 (human glutamate dehydrogenase isozyme 2) (Homo sapiens, UniProt P49448) (P49448 54-558): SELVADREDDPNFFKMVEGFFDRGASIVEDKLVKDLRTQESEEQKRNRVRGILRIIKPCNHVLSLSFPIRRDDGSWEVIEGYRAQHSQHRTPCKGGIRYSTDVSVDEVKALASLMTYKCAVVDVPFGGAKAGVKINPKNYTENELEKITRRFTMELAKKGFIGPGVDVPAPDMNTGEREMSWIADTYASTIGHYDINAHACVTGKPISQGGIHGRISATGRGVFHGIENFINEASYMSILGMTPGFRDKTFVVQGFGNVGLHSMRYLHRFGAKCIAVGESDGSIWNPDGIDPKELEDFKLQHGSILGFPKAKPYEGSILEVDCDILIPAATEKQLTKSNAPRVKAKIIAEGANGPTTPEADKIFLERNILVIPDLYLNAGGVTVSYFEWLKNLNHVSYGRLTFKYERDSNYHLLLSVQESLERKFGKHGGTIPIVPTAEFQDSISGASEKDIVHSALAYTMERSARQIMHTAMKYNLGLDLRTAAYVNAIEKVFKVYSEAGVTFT

[5] = target: hGDH2 (human glutamate dehydrogenase isozyme 2) (Homo sapiens, UniProt P49448, C112A)
Chain of hGDH2 (human glutamate dehydrogenase isozyme 2) (Homo sapiens, UniProt P49448, C112A) (P49448 54-558 C112A): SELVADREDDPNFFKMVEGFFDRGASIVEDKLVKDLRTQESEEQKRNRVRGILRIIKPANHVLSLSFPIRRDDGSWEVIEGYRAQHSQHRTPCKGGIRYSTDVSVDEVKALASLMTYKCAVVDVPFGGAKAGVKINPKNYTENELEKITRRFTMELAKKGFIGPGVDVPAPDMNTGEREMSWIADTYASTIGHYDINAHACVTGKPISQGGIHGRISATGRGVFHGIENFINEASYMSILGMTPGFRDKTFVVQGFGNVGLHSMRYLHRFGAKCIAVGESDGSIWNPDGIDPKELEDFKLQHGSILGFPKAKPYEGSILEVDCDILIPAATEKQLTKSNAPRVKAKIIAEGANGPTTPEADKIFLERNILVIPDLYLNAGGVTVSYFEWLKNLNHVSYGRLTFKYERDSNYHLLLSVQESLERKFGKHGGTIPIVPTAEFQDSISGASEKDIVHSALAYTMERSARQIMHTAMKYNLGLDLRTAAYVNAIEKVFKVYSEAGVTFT

[6] = target: hGDH2 (human glutamate dehydrogenase isozyme 2) (Homo sapiens, UniProt P49448, C327A)
Chain of hGDH2 (human glutamate dehydrogenase isozyme 2) (Homo sapiens, UniProt P49448, C327A) (P49448 54-558 C327A): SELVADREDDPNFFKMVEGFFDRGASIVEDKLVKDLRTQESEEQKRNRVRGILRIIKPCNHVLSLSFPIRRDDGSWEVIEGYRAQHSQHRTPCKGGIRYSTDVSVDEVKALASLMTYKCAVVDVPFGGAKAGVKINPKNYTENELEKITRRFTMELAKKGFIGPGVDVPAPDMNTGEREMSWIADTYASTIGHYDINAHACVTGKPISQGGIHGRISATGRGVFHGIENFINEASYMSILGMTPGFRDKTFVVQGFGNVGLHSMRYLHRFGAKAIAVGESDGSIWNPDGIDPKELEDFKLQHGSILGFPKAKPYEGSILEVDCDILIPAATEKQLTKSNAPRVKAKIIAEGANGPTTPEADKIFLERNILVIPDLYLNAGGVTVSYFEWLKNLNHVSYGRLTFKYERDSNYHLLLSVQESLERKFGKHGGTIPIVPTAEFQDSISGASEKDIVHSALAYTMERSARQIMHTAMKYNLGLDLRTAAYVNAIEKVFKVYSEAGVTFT

Chain of hGDH2 (human glutamate dehydrogenase isozyme 2) (Homo sapiens, UniProt P49448, C146A) (P49448 54-558 C146A): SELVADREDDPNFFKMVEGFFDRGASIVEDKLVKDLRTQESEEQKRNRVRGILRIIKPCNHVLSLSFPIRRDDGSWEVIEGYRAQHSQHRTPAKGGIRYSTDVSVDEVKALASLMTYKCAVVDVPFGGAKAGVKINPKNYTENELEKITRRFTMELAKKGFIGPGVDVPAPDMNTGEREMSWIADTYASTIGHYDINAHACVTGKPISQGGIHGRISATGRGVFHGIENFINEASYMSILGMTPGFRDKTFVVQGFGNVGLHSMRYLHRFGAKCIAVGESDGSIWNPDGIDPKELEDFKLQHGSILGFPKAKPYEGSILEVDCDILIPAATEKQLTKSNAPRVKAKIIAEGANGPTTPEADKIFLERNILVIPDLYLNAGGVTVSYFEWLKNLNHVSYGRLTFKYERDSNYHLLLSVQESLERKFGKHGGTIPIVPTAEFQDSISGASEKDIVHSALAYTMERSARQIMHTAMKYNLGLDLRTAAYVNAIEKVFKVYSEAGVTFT
Chain of hGDH2 (human glutamate dehydrogenase isozyme 2) (Homo sapiens, UniProt P49448, C254A) (P49448 54-558 C254A): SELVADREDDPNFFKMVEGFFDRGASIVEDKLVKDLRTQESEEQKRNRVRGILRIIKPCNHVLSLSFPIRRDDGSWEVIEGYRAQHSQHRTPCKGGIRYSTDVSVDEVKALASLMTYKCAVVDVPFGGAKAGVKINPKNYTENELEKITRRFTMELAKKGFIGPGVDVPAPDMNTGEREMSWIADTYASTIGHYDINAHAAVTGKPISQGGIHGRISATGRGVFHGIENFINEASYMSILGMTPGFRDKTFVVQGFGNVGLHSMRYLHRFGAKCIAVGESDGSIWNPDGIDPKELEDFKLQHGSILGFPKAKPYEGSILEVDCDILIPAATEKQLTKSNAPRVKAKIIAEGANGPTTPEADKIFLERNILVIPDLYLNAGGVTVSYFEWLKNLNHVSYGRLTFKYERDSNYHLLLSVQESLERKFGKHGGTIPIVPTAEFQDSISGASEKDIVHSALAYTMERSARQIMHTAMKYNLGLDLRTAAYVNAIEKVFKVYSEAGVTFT

SMILES: CCCCCCCCCCCCCCCC(=O)SCCNC(=O)CCNC(=O)[C@H](O)C(C)(C)COP(=O)(O)OP(=O)(O)OC[C@H]1O[C@@H](n2cnc3c(N)ncnc32)[C@H](O)[C@@H]1OP(=O)(O)O [palmitoyl-CoA]
- IC50 [1]: 2600 nM
- IC50 [2]: 2470 nM
- IC50 [3]: 1980 nM
- IC50 [4]: 1820 nM
- IC50 [5]: 2150 nM
- IC50 [6]: 2310 nM
